From patent publication US8685974B2 (Bayer CropScience AG, priority 2009, dated 2014)
Like-named read-outs stand apart in the source and are kept apart here. Marks after values point to notes of the source that are not given here.

Tests used:
Fusarium graminearum = type: cell-based; details: 50 μM; for % Inhibition of DON/AcDON at 50 μM: 7 days at 28° C.

Row | SMILES | % Inhibition of fungal growth at 50 μM (Fusarium graminearum) | % Inhibition of DON/AcDON at 50 μM (Fusarium graminearum) | log p (pH 2.7) | other results
1 | CC(C)n1ncc(-c2ccncc2)c1-c1ccc(F)s1 [Example 109] | 49% | 100% | 1.51^[b] | 
2 | Brc1ccc(-c2nn(C3CCCC3)cc2-c2ccncc2)s1 [Example 356] | 75% | 97% | 2.37^[b] | 
3 | Fc1ccc(-c2n[nH]cc2-c2ccncc2)s1 [Example 105] | 0% | 88% | 0.57^[b] | 
4 | CCn1cc(-c2ccnc(NC(=O)N(C)C)c2)c(-c2ccc(Cl)s2)n1 [Example 251] | 100% | 99% | 1.72^[b] | 
5 | CSc1ccc(-c2nn(C(C)C)cc2-c2ccncc2)s1 [Example 294] | 92% | 99% | 1.79^[b] | 
6 | CC1(Cn2cc(-c3ccncc3)c(-c3ccc(Cl)s3)n2)CC1(Cl)Cl (stereo not shown) [Example 324] | 0% | 93% | 2.71^[b] | 
7 | Fc1ccc(-c2nn(Cc3ccc(Cl)s3)cc2-c2ccncc2)s1 [Example 341] | 55% | 96% | 2.34^[b] | 
8 | N#CCCn1cc(-c2ccncc2)c(-c2cc3ccsc3s2)n1 [Example 338] | 50% | 99% | 1.07^[b] | 
9 | COCC(=O)Nc1cc(-c2cn(C(C)C)nc2-c2ccc(Cl)s2)ccn1 [Example 244] | 100% | 99% | 3.25^[b] | 
10 | Clc1ccc(Cn2cc(-c3ccncc3)c(-c3ccc(Br)s3)n2)s1 [Example 351] | 36% | 99% | 2.69^[b] | 
11 | ClCCn1cc(-c2ccncc2)c(-c2cc3ccsc3s2)n1 [Example 370] | 70% | 99% | 1.7^[b] | 
12 | ClCCn1cc(-c2ccncc2)c(-c2ccc(Br)s2)n1 [Example 393] | 96% | 99% | 1.78^[b] | logP value of the minor isomer (pH 2.7): (1.61)
13 | O=C1OCCC1n1cc(-c2ccncc2)c(-c2cc3ccsc3s2)n1 (stereo not shown) [Example 372] | 1% | 98% | 1.49^[b] | 
14 | N#CCn1cc(-c2ccncc2)c(-c2ccc(Br)s2)n1 [Example 348] | 45% | 99% | 1.51^[b] | 
15 | CCn1cc(-c2ccnc(Cl)c2)c(-c2ccc(Cl)s2)n1 [Example 316] | 37% | 87% | 3.89^[b] | 
16 | C=CCNc1nccc(-c2cn(C(C)CC)nc2-c2ccc(Cl)s2)n1 (stereo not shown) [Example 196] | 83% | 99% |  | log p (pH 2.3): 3.39^[a]
17 | CC(C)n1cc(-c2ccnc(N)c2)c(-c2ccc(Cl)s2)n1 [Example 306] | 87% | 100% | 1.78^[b] | 
18 | Clc1ccc(-c2c(-c3ccncc3)cnn2-c2ccccc2)s1 [Example 23] |  |  | 1.88^[b] | 
19 | CC(n1ncc(-c2ccncc2)c1-c1ccc(Cl)s1)C(C)(C)C (stereo not shown) [Example 19] |  |  | 2.47^[b] | 
20 | C=CCn1cc(-c2ccncc2)c(-c2ccc(Cl)s2)n1 [Example 48] |  |  | 1.65^[b] | logP value of the minor isomer (in parenthesis in column Isomer ratio [d]) (pH 2.7): (1.50)

Row | SMILES | % Inhibition of fungal growth at 50 μM (Fusarium graminearum) | % Inhibition of DON/AcDON at 50 μM (Fusarium graminearum) | log p (pH 2.7) | other results
21 | [O-][n+]1ccc(-c2c[nH]nc2-c2ccc(Cl)s2)cc1Cl [Example 59] |  |  |  | log p (pH 7.8): 1.57^[c]
22 | Cn1cc(-c2ccnc(Cl)c2)c(-c2ccc(Cl)s2)n1 [Example 313] | 6% | 98% | 3.37^[b] | 
23 | CCC(C)Nc1nccc(-c2cn(C(C)CC)nc2-c2ccc(Cl)s2)n1 (stereo not shown) [Example 197] | 73% | 90% |  | log p (pH 2.3): 3.48^[a]
24 | CCC(C)n1cc(-c2ccnc(NCc3ccccc3)n2)c(-c2ccc(Cl)s2)n1 (stereo not shown) [Example 200] |  |  |  | log p (pH 2.3): 4.27^[a]
25 | CC(C)C(C)n1ncc(-c2ccncn2)c1-c1ccc(Cl)s1 (stereo not shown) [Example 32] |  |  | 3.8^[b] | 
26 | CC(C)n1ncc(-c2ccncn2)c1-c1ccc(Cl)s1 [Example 30] |  |  | 2.94^[b] | 
27 | CCC(C)n1cc(-c2ccnc(Br)c2)c(-c2ccc(Cl)s2)n1 (stereo not shown) [Example 100] |  |  | 5.03^[b] | 
28 | CC(C)Cn1cc(-c2ccncc2)c(-c2cc3sccc3s2)n1 [4-[1-isobutyl-(3/5)-(3-thieno[3,2-b]thiophen-2-yl)-1H-pyrazol-4-yl]pyridine] |  |  |  | logP (pH2.7) (pH 2.7): 2.07; logP (pH2.7), minor isomer (pH 2.7): 2.02
29 | Clc1ccc(Cn2cc(-c3ccncc3)c(-c3cc4ccsc4s3)n2)s1 [Example 339] |  |  | 2.57^[b] | logP value of the minor isomer (between parenthesis, Isomer ratio column) (pH 2.7): (2.35)
30 | CN(C)S(=O)(=O)Nc1cc(-c2cn(C)nc2-c2ccc(Cl)s2)ccn1 [Example 220] |  |  | 2.23^[b] | 
31 | CC(C)Cn1ncc(-c2ccncc2)c1-c1ccc(Br)s1 [Example 406] | 0% | 95% | 1.91^[b] | 
32 | CC(C)(C)Cn1ncc(-c2ccncc2)c1-c1ccc(Cl)s1 [Example 25] |  |  | 2.17^[b] | 
33 | CC(C)Cn1cc(-c2ccncc2)c(-c2ccc(C#N)s2)n1 [Example 404] |  |  | 1.74^[b] | 
34 | CSc1ccc(-c2c(-c3ccncc3)cnn2C(C)C)s1 [Example 295] |  |  | 1.78^[b] | 
35 | CC(C)n1cc(-c2ccnc(N)n2)c(-c2ccc(Cl)s2)n1 [Example 185] |  |  |  | log p (pH 2.3): 2.01^[a]
36 | CCOCCn1cc(-c2ccncc2)c(-c2ccc(Br)s2)n1 [Example 349] | 95% | 99% | 1.75^[b] | 
37 | CCC(C)n1cc(-c2ccnc(C#CC3CC3)c2)c(-c2ccc(Cl)s2)n1 (stereo not shown) [Example 111] |  |  | 4.56^[b] | 
38 | CCC(C)n1cc(-c2ccnc(NC(C)C)n2)c(-c2ccc(Cl)s2)n1 (stereo not shown) [Example 189] |  |  |  | log p (pH 2.3): 3.25^[a]
39 | FC(F)Cn1cc(-c2ccnc(Cl)c2)c(-c2ccc(Cl)s2)n1 [Example 314] |  |  | 3.71^[b] | 
40 | CC(CN(C)C)Cn1cc(-c2ccnc(Cl)c2)c(-c2ccc(Cl)s2)n1 (stereo not shown) [Example 91] |  |  |  | log p (pH 2.3): 1.84^[a]; logP value of the minor isomer (in parenthesis in column Isomer ratio [d]) (pH 2.3): (1.74)

Row | SMILES | % Inhibition of fungal growth at 50 μM (Fusarium graminearum) | % Inhibition of DON/AcDON at 50 μM (Fusarium graminearum) | log p (pH 2.7) | other results
41 | CC(C)Cn1cc(-c2cc[n+]([O-])c(NCc3ccccc3)c2)c(-c2ccc(Cl)s2)n1 [2-Benzylamino-4-[1-isobutyl-3-(5-chloro-2-thienyl)-1H-pyrazol-4-yl]pyridine N oxide] |  |  |  | logP (pH2.7) (pH 2.7): 3.65
42 | FC(F)Cn1cc(-c2ccncc2)c(-c2cc(Cl)cs2)n1 [Example 157] |  |  | 1.42^[b] | 
43 | CC(C)Nc1nccc(-c2cn(Cc3ccccc3F)nc2-c2ccc(Cl)s2)n1 [Example 121] |  |  | 3.39^[b] | logP value of the minor isomer (in parenthesis in column Isomer ratio [d]) (pH 2.7): (3.02
44 | Nc1cc(-c2cn(/C=C/F)nc2-c2ccc(Cl)s2)ccn1 [Example 301] | 60% | 99% | 1.59^[b] | 
45 | CC(C)n1cc(-c2ccncc2)c(-c2ccc(I)s2)n1 [Example 214] | 89% | 99% | 1.89^[b] | 
46 | CC(C)n1ncc(-c2ccncc2)c1-c1ccc(Cl)s1 [Example 39] |  |  | 1.7^[b] | log p (pH 2.3): 1.63^[a];
47 | C#CCn1cc(-c2ccncc2)c(-c2sccc2Cl)n1 [Example 131] |  |  | 1.11^[b] | logP value of the minor isomer (pH 2.7): (1.10)
48 | Cn1cc(-c2ccnc(NC(=O)C(C)(C)C)c2)c(-c2ccc(Cl)s2)n1 [Example 283] |  |  | 2.92^[b] | 
49 | Clc1ccc(-c2nn(Cc3ccccc3)cc2-c2ccncc2)s1 [Example 43] |  |  |  | log p (pH 2.3): 2.35^[a]
50 | Cc1c(-c2ccncc2)c(-c2ccc(Cl)s2)nn1C [Example 147] |  |  | 1.29^[b] | log p (pH 7.8): 2.62^[c];
51 | CS(=O)(=O)n1cc(-c2ccncc2)c(-c2ccc(Cl)s2)n1 [Example 88] |  |  | 1.78^[b] | 
52 | CC(C)n1cc(-c2ccncc2)c(-c2ccc(C(F)(F)F)s2)n1 [4-[1-isopropyl-(3/5)-(5-trifluoromethyl-2-thienyl)-1H-pyrazol-4-yl]pyridine] |  |  |  | logP (pH2.7) (pH 2.7): 2.20; logP (pH2.7), minor isomer (pH 2.7): 2.08
53 | C=CC(C)n1cc(-c2ccncc2)c(-c2sccc2Cl)n1 (stereo not shown) [Example 161] |  |  | 1.51^[b] | 
54 | COCn1cc(-c2ccnc(NC(C)C)n2)c(-c2ccc(Cl)s2)n1 [Example 115] |  |  | 2.39^[b] | logP value of the minor isomer (in parenthesis in column Isomer ratio [d]) (pH 2.7): (2.39)
55 | N#CCCn1cc(-c2ccncc2)c(-c2ccc(Cl)s2)n1 [Example 322] | 0% | 99% | 0.98^[b] | 
56 | ClC(Cl)=CCn1cc(-c2ccncc2)c(-c2cc3ccsc3s2)n1 [Example 335] |  |  | 1.67^[b] | 
57 | CCn1cc(-c2ccncc2)c(-c2sccc2Cl)n1 [Example 163] |  |  | 1.14^[b] | 
58 | CC(C)Cn1cc(-c2cc[n+]([O-])c(Cl)c2)c(-c2ccc(Cl)s2)n1 [Example 74] |  |  |  | log p (pH 2.3): 3.04^[a]; logP value of the minor isomer (in parenthesis in column Isomer ratio [d]) (pH 2.3): (2.82)
59 | COCCn1cc(-c2ccncc2)c(-c2ccc(Cl)s2)n1 [Example 49] |  |  | 1.42^[b] | logP value of the minor isomer (in parenthesis in column Isomer ratio [d]) (pH 2.7): (1.29)
60 | CC(C)=CCn1ncc(-c2ccncn2)c1-c1ccc(Cl)s1 [Example 29] |  |  | 3.44^[b] | 
